The nature of series [1]: Solubility of Compound 1 in salt-screening solvents. The class given is physicochemical. The note with it: for solubility: organic solvent or mixture, read-out: solubility of Compound 1 (S). As to the method: Nine solvent systems were evaluated in the Salt-screening study. The solvents were selected based on the solubility data accumulated during preceding studies. In addition, solvents represented a diverse set of polarities, dielectric constants, dipole moments, and hydrogen-bond donor/acceptor attributes to promote crystallization of salts.

The nature of series [2]: pKa of Compound 1. Type of series: physicochemical.
Series [3] can be described thus: Chemical stability of Compound 1 in solution. To be noted: solutions having pH values between 2 and 8. The class given is physicochemical.
A short description of series [4]: Salt-screening study (crystalline form screening of Compound 1 with counterions). The note with it: for formation of pure and stable crystalline salt form, overall salt screen: approximately 360 screening experiments, FT-Raman and PXRD. Type of series: physicochemical. The protocol:
During the salt-screening step, 60 combinations of […] counterions with nine solvent systems were tested.
The screening studies were conducted in two stages.
In Stage 1, the samples involving counterion Nos. 1-6 listed in Table 1 were paired with solvent Nos. 1-6 listed in Table 2, whereas samples involving counterion Nos. 7 and 8 were paired with solvent Nos. 1-5 and 8.
In Stage 2, a few samples that remained undissolved and amorphous in the first stage were 1) subjected to rapid solvent evaporation under vacuum; 2) dissolved in solvent Nos. 7-9 listed in Table 2; 3) cooled to 5° C. and held at 5° C. for 72 hrs; and 4) allowed to evaporate at ambient conditions over 3-7 days.
(§1) All samples were inspected visually and by Polarized light microscopy at every step listed above to check any formation of crystalline products. Any crystalline products obtained from these procedures were isolated by vacuum filtration and, where possible, analyzed by FT-Raman. Unique crystalline products were subjected to further analyses by PXRD, DSC, TGA-IR, and HPLC, as necessary.

A short description of series [5]: HPLC analysis of salt-screening products for decomposition. The class given is physicochemical. The note with it: solvent system THF and Water (95:5 vol %).
Source text: as §1

The conditions of series [6]: counterion itself; cited from earlier work.
The nature of series [7]: Open-air handling and stability of isolated potassium salt. Type of series: physicochemical. As to the method:
The potassium salt was subsequently reproduced at 50 mg and 300 mg scales using seeding, which facilitated crystallization of the several hours of amorphous intermediate phase. […] Once a free-flowing powder was isolated, the powder was stable in open-air for at least 7 days.

These results are taken from US9687497B1, “Salts and polymorphs of cyclic boronic acid ester derivatives and therapeutic uses thereof” (Rempex Pharmaceuticals, Inc., priority 2014, dated 2017).

The structures appear in SMILES notation. Like-named read-outs stand apart in the source and are kept apart here.

Consider `O=C(O)C[C@@H]1CC[C@H](NC(=O)Cc2cccs2)B(O)O1` [Compound 1, 2-((3R,6S)-2-hydroxy-3-(2-(thiophen-2-yl)acetamido)-1,2 oxaborinan-6-yl)acetic acid], for which the solubility (in general, the dissolved amount per volume that the medium holds) in series [1] (1,4-dioxane) is 1000 to 10000 µg/mL; in series [1] (MTBE), < 1000 µg/mL; in series [1] (THEF Water (95:5% vol.)), > 1000 µg/mL; in series [1] (acetone) it was < 1000 µg/mL; in series [1] (acetonitrile (ACN)) it was < 1000 µg/mL; in series [1] (ethyl acetate), < 1000 µg/mL. In addition, the solubility in series [1] (ACN: Water (90:10% vol.)) is < 20000 µg/mL. Moreover, the “solubility of Compound 1” value in series [1] (Water) is reported as “Low solubility of Compound 1”. The pKa (in general, the negative logarithm of the acid dissociation constant) in series [2] was determined as 3.92. The “chemical stability of boronic acid moiety in solution” value in series [3] is reported as “chemically stable”.
As to `[Mg+2].[OH-].[OH-]` [Magnesium hydroxide], the “formation of pure and stable crystalline salt form, overall salt screen” value (shortened to “formation”) in series [4] was “no pure and stable crystalline salt was formed”. Besides, the “decomposition in screening products by HPLC” value (shortened to “decomposition”) in series [5] was “significant decomposition”.
On to `C[N+](C)(C)CCO.[OH-]` [Choline hydroxide], for which the pKa3 in series [6] is reported as >11. The “decomposition” value in series [5] is “significant decomposition”.
As for `O=C([O-])C[C@@H]1CC[C@H](NC(=O)Cc2cccs2)B(O)O1.[K+]` [Compound 1A, potassium salt of 2-((3R,6S)-2-hydroxy-3-(2-(thiophen-2-yl)acetamido)-1,2-oxaborinan-6-yl)acetic acid], the “formation” value in series [4] was “yielded a pure and stable crystalline form”; in series [4] (listed as potassium salt of compound 1), “yielded crystalline products”. Also, the propensity for polymorphism result in series [4] (only one crystalline form observed in the study) is listed as “low propensity for polymorphism”. Further, the deliquescence on isolation result in series [7] (isolated in open air, reduced or eliminated under nitrogen blanket) was “may undergo deliquescence”. Further, the “stability of isolated free-flowing powder in open-air” value in series [7] (open air) is given as “at least 7 days”.
In the case of `[Ca+2].[OH-].[OH-]` [Calcium hydroxide], in series [4], the “formation” value is “no pure and stable crystalline salt was formed”. For the same compound, in series [5], the “decomposition” value is recorded as “significant decomposition”.
In the case of `CC(C)(C)[O-].[K+]` [Potassium t-butoxide], the pKa3 in series [6] is listed as ~14.
Regarding `[K+]` [potassium], the “decomposition” value in series [5] was “significant decomposition”.
